# Experimental data taken from patent US20180161386A1, “PHARMACEUTICAL COMPOSITION FOR TREATMENT OF DEPRESSION AND PREPARATION METHOD THEREOF” (THISHERB HEALTH PTY LTD, priority 2015, published 2018).
# Where a name gives a salt, the structure may show the parent alone.
# Assays:
# [1] = tested on: mice; assay: opening test (independent activity, open box); type: in vivo, mouse
# Description: (§1) 1.1 Drug testing and reagents: The capsules pharmaceutical compositions for the treatment of depression in form of obtained in Example 2 compared with fluoxetine hydrochloride. 1.2 Animals: 20 male and 20 female mice provided by the Experimental Animal Center; average body mass of 18-22 g. 1.3 Instruments: Mouse-tail suspension device (a wooden board of about 1 meter in length, fixed onto a desktop with a horizontal distance of about 15 cm), swimming model device (a glass tank with a height of 30 cm, a diameter of 14 cm, a water depth of 10 cm, and temperature of 25° C.), and homemade open box. 1.4 Grouping: The mice were fed for one week, during which time the mice feed and drink freely. The mice were randomly divided into four groups of control group, depression capsule low-dose group (hereinafter referred to as the low-dose group), depression capsule high-dose group (hereinafter referred to as the high-dose group), the positive groups, 10 mice per group. […]
# A wooden box was provided with 36 cm×36 cm×27 cm, the bottom of which is divided into 25 squares. The test was performed in 1 h after last drug administration, and the number of the mouse crossing the grids and vertical climbing within last 3 min for 5 min period was recorded.
# [2] = tested on: mice; assay: mouse-tail suspension test; type: in vivo
# Description: as §1
# The mouse was suspended by its tail so that the tail was adhered (1 cm from the tail end of the mouse) to the horizontal plank of wooden board by tape with its head about 5 cm above the desktop. […] The test was performed in 1 h after last drug administration and the time of the mouse being immobile within last 4 min for 6 min period was recorded.
# [3] = tested on: mice; assay: mouse forced swimming test; type: in vivo
# Description: 1.1 Drug testing and reagents: The capsules pharmaceutical compositions for the treatment of depression in form of obtained in Example 2 compared with fluoxetine hydrochloride. 1.2 Animals: 20 male and 20 female mice provided by the Experimental Animal Center; average body mass of 18-22 g. 1.3 Instruments: Mouse-tail suspension device (a wooden board of about 1 meter in length, fixed onto a desktop with a horizontal distance of about 15 cm), swimming model device (a glass tank with a height of 30 cm, a diameter of 14 cm, a water depth of 10 cm, and temperature of 25° C.), and homemade open box. 1.4 Grouping: The mice were fed for one week, during which time the mice feed and drink freely. The mice were randomly divided into four groups of control group, depression capsule low-dose group (hereinafter referred to as the low-dose group), depression capsule high-dose group (hereinafter referred to as the high-dose group), the positive groups, 10 mice per group. 1.5 Drug administration: The control group was given saline daily at 0.2 ml/10 g; the positive control group was given fluoxetine hydrochloride 2.4 mg/kg; the low-dose group was given depression capsules 1.05 g/kg; and the high-dose group was given depression capsules 4.20 g/kg. The route of administration was directly into the stomach.
# 1.6.2 Mouse forced swimming test: Refer to method by Prosolt et al. […]
# [4] = positive group 2.4 mg/kg, P<0.01
smiles,measurement,setting,value
CNCCC(Oc1ccc(C(F)(F)F)cc1)c1ccccc1 (stereo not drawn) [fluoxetine hydrochloride],the number of squares crossed by mouse,"[1]; mice, positive control group 0.0024 g/kg (2.4 mg/kg), directly into the stomach, 1 h after last administration, last 3 min of 5 min, ±s, n = 10",43.9 ± 13.3
same,effect on independent activity in the opening test compared with the control group,"[1]; positive group 2.4 mg/kg, P>0.05",no significant difference
same,Immobile time in the mouse-tail suspension test,"[2]; mice, positive control group 0.0024 g/kg (2.4 mg/kg), directly into the stomach, 1 h after last administration, last 4 min of 6 min, x ± s, n = 10",73 s
same,effect on immobile time in mouse-tail suspension test compared with the control group,[2]; [4],highly significant difference
same,Immobile time in mouse forced swimming test,"[3]; mice, positive control group 0.0024 g/kg (2.4 mg/kg), directly into the stomach, 1 h after last administration, last 4 min of 6 min, water 25° C., x ± s, n = 10",83.5 s
same,effect on immobile time in mouse forced swimming test compared with the control group,[3]; [4],highly significant difference
